The experiment has as its target T1, RAD52 IB mutant (K152A/R153A) (Homo sapiens, UniProt P43351, K152A/R153A).
T1 construct: 6xHis; made in house
T1 sequence (P43351 1-418 K152A/R153A): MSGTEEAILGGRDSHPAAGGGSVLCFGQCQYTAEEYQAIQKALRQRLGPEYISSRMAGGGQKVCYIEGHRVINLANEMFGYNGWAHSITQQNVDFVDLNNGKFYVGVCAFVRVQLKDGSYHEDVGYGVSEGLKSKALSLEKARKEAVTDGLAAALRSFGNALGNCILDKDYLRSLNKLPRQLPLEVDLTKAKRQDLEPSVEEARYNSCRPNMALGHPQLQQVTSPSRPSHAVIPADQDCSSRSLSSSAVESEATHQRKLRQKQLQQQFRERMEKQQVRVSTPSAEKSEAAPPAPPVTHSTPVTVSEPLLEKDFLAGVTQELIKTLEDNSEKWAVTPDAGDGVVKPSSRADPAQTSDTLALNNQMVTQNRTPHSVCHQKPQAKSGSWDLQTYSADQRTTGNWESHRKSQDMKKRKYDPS
The experiment is described as follows: FRET-based inhibition of ssDNA binding, inner binding defective RAD52 mutant. As for the experimental part:
Proteins: The 6×His-tagged human RAD52 proteins (wild type and mutants) and untagged human RPA were expressed and purified as previously described in (Hengel S R, eLife. 2016; 5; Grimme J M, et al., Nucleic Acids Res. 2010; 38(9):2917-30; and Henricksen L A, et al., The Journal of biological chemistry. 1994; 269(15):11121-32). RPA and RAD52 protein concentrations were determined by measuring absorbance at 280 nm using extinction coefficients of 88,830 M^−1 cm^−1 and 40,470 M^−1 cm^−1, respectively.
FRET-based DNA binding and inhibition assays: FRET-based that monitor the RAD52-ssDNA, RPA-ssDNA and RAD52-RPA-ssDNA binding were carried out as previously described (Hengel S R, eLife. 2016; 5; Grimme J M, et al., Nucleic Acids Res. 2010; 38(9):2917-30; and Grimme J M, Spies M. FRET-based assays to monitor DNA binding and annealing by Rad52 recombination mediator protein. Methods in molecular biology (Clifton, NJ). 2011; 745:463-83) using Cary Eclipse Spectrofluorimeter (Agilent) at 25° C., in 5 mm quartz cuvettes, and in buffer containing 30 mM Tris-Acetate (pH 7.5) and 1 mM DTT. Cy3 dye was excited at 530 nm and its emission was monitored at 565 nm. Emission of Cy5 acceptor fluorophore excited through the energy transfer from Cy3 donor is monitored at 660 nm simultaneously with emission of Cy3 dye. […]
Spectral properties of many compounds overlapped with the Cy3 and Cy5 fluorescence. […]

For the compound `O=C(Cn1cccc([N+](=O)[O-])c1=O)c1c[nH]c2ccccc12` [Example 1], the “inhibition of ssDNA binding to IB mutant RAD52” value is reported as “able to inhibit”.

As to `COc1ccccc1NS(=O)(=O)c1cc(C(=O)O)ccc1C` [Example 8], the “inhibition of ssDNA binding to IB mutant RAD52” value is “able to inhibit”.

The values are drawn from patent US20260193227A1, “THERAPEUTIC COMPOUNDS AND METHODS” (UNIVERSITY OF IOWA RESEARCH FOUNDATION, priority 2022, published 2026).
